Experimental data taken from PubChem BioAssay AID342 (DTP/NCI, 2004).
Several values for one entry are separate records, joined by “and”; a condition that tells them apart may be missing. Equal entries are not always repeated.

Tested on: Swiss mice, Sarcoma 180 sc, mean tumor weight T/C
Assay: NCI In Vivo Anticancer Drug Screen. Data for tumor model Sarcoma 180 (subcutaneous) in Swiss mice
Conditions: endpoint: mean tumor weight, higher = larger tumour
Procedure, shortened: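 Readout is the ratio of treated-group measurement to vehicle-control measurement (T/C), based on survival or tumor size in mice carrying transplanted tumors.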

[1] = dose: 60.0 mg/kg/injection, schedule: Q01DX007 (ip), vehicle: carboxymethylcellulose (CMC)
[2] = dose: 750.0 mg/kg/injection, schedule: Q01DX007 (ip), vehicle: other
[3] = dose: 250.0 mg/kg/injection, schedule: Q01DX007 (ip), vehicle: carboxymethylcellulose (CMC)
[4] = dose: 62.5 mg/kg/injection, schedule: Q01DX007 (ip), vehicle: other

## CCCCCCCCCCCC1=C(O)C(=O)C(CC2=C(O)C(=O)C(CCCCCCCCCCC)=C(O)C2=O)=C(O)C1=O
dose: 7.5 mg/kg/injection, schedule: Q01DX007 (ip), vehicle: carboxymethylcellulose (CMC)
  T/C: 110 % of control
dose: 15.0 mg/kg/injection, schedule: Q01DX007 (ip), vehicle: carboxymethylcellulose (CMC)
  T/C: 85 % of control
dose: 30.0 mg/kg/injection, schedule: Q01DX007 (ip), vehicle: carboxymethylcellulose (CMC)
  T/C: 50 % of control
[1]
  T/C: 123 % of control

## CC(=O)OCC1OC(n2ncc(=O)[nH]c2=O)C(OC(C)=O)C1OC(C)=O (centres undefined)
dose: 375.0 mg/kg/injection, schedule: Q01DX007 (ip), vehicle: other
  T/C: 74 % of control
[2]
  T/C: 93 % of control
dose: 1500.0 mg/kg/injection, schedule: Q01DX007 (ip), vehicle: other
  T/C: 74 % of control

## OCC(F)(F)C(F)(F)C(F)(F)F
dose: 222.0 mg/kg/injection, schedule: Q01DX007 (ip), vehicle: other
  T/C: 56 % of control
dose: 250.0 mg/kg/injection, schedule: Q01DX007 (ip), vehicle: saline
  T/C: 74 % of control
dose: 333.0 mg/kg/injection, schedule: Q01DX007 (ip), vehicle: other
  T/C: 82 % of control
dose: 500.0 mg/kg/injection, schedule: Q01DX007 (ip), vehicle: other
  T/C: 56 % of control
[2]
  T/C: 90 % of control

## CC(C)CCCCCCCCCCCCC(=O)NCC(=O)NC1C(O)C(O)C(Nc2ncnc3nc[nH]c23)OC1C(O)CO (centres undefined)
dose: 0.3 mg/kg/injection, schedule: Q## X000 (ip), vehicle: carboxymethylcellulose (CMC)
  T/C: 63 % of control
dose: 0.44 mg/kg/injection, schedule: Q## X000 (ip), vehicle: carboxymethylcellulose (CMC)
  T/C: 61 % of control
dose: 0.6 mg/kg/injection, schedule: Q01DX007 (ip), vehicle: carboxymethylcellulose (CMC)
  T/C: 58 % of control and 70 % of control
dose: 0.66 mg/kg/injection, schedule: Q## X000 (ip), vehicle: carboxymethylcellulose (CMC)
  T/C: 53 % of control
dose: 0.9 mg/kg/injection, schedule: Q01DX007 (ip), vehicle: carboxymethylcellulose (CMC)
  T/C: 36 % of control and 56 % of control
dose: 1.0 mg/kg/injection, schedule: Q## X000 (ip), vehicle: carboxymethylcellulose (CMC)
  T/C: 36 % of control
dose: 1.35 mg/kg/injection, schedule: Q01DX007 (ip), vehicle: carboxymethylcellulose (CMC)
  T/C: 82 % of control

## CC(=O)OCC(=O)[C@@]1(O)CC[C@H]2[C@@H]3CCC4=CC(=O)CC[C@]4(C)[C@H]3[C@@H](O)C[C@@]21C
dose: 12.5 mg/kg/injection, schedule: Q#A X014 (ip), vehicle: steriod suspending solution
  T/C: 70 % of control
dose: 25.0 mg/kg/injection, schedule: Q#A X014 (ip), vehicle: steriod suspending solution
  T/C: 88 % of control
dose: 50.0 mg/kg/injection, schedule: Q#A X014 (ip), vehicle: steriod suspending solution
  T/C: 57 % of control

## C[C@H]1/C(=C/C(=O)OCCN(C)C)CC[C@H]2[C@H]1C(=O)C[C@H]1C(C)(C)[C@@H](O)CC[C@]21C
dose: 1.88 mg/kg/injection, schedule: Q01DX007 (ip), vehicle: saline
  T/C: 60 % of control
dose: 3.75 mg/kg/injection, schedule: Q01DX007 (ip), vehicle: saline
  T/C: 64 % of control
dose: 7.5 mg/kg/injection, schedule: Q01DX007 (ip), vehicle: saline
  T/C: 75 % of control

## CN(CCO)/N=N/c1nc[nH]c1C(N)=O
dose: 125.0 mg/kg/injection, schedule: Q01DX007 (ip), vehicle: carboxymethylcellulose (CMC)
  T/C: 73 % of control
[3]
  T/C: 78 % of control

## O=S(=O)(OCCCl)OCCCl
dose: 31.2 mg/kg/injection, schedule: Q01DX007 (ip), vehicle: other
  T/C: 54 % of control
[4]
  T/C: 66 % of control

## O=P(Oc1ccccc1)(OP(=O)(Oc1ccccc1)N(CCCl)CCCl)N(CCCl)CCCl (centres undefined)
dose: 12.5 mg/kg/injection, schedule: Q#A X014 (ip), vehicle: other
  T/C: 85 % of control
dose: 25.0 mg/kg/injection, schedule: Q#A X014 (ip), vehicle: other
  T/C: 76 % of control
dose: 50.0 mg/kg/injection, schedule: Q#A X014 (ip), vehicle: other
  T/C: 112 % of control

## Cc1cc(=O)[nH]c(N=Nc2c(O)[nH]c3ccccc23)n1
dose: 222.0 mg/kg/injection, schedule: Q01DX007 (ip), vehicle: saline
  T/C: 58 % of control
dose: 333.0 mg/kg/injection, schedule: Q01DX007 (ip), vehicle: saline
  T/C: 75 % of control
dose: 500.0 mg/kg/injection, schedule: Q01DX007 (ip), vehicle: saline
  T/C: 43 % of control
dose: 750.0 mg/kg/injection, schedule: Q01DX007 (ip), vehicle: saline
  T/C: 59 % of control

## C1CCCNCC1
dose: 15.5 mg/kg/injection, schedule: Q01DX007 (ip), vehicle: other
  T/C: 92 % of control
dose: 31.0 mg/kg/injection, schedule: Q01DX007 (ip), vehicle: other
  T/C: 69 % of control
[4]
  T/C: 103 % of control
dose: 125.0 mg/kg/injection, schedule: Q01DX007 (ip), vehicle: other
  T/C: 69 % of control
dose: 200.0 mg/kg/injection, schedule: Q01DX007 (ip), vehicle: other
  T/C: 69 % of control

## CN(C)[C@@H]1C(=O)C(C(=O)NCNC(CO)(CO)CO)=C(O)[C@@]2(O)C(=O)C3=C(O)c4c(O)cccc4[C@@](C)(O)[C@H]3C[C@@H]12
dose: 55.0 mg/kg/injection, schedule: Q#A X014 (ip), vehicle: saline
  T/C: 65 % of control
dose: 83.0 mg/kg/injection, schedule: Q#A X014 (ip), vehicle: saline
  T/C: 93 % of control
dose: 100.0 mg/kg/injection, schedule: Q01DX007 (ip), vehicle: methylcellulose (MC)
  T/C: 83 % of control
dose: 100.0 mg/kg/injection, schedule: Q01DX007 (ip), vehicle: saline
  T/C: 119 % of control
dose: 125.0 mg/kg/injection, schedule: Q#A X014 (ip), vehicle: saline
  T/C: 52 % of control
dose: 140.0 mg/kg/injection, schedule: Q01DX007 (ip), vehicle: methylcellulose (MC)
  T/C: 62 % of control
dose: 140.0 mg/kg/injection, schedule: Q01DX007 (ip), vehicle: saline
  T/C: 83 % of control
dose: 210.0 mg/kg/injection, schedule: Q01DX007 (ip), vehicle: methylcellulose (MC)
  T/C: 38 % of control
dose: 210.0 mg/kg/injection, schedule: Q01DX007 (ip), vehicle: other
  T/C: 86 % of control
dose: 210.0 mg/kg/injection, schedule: Q01DX007 (ip), vehicle: saline
  T/C: 65 % of control
dose: 320.0 mg/kg/injection, schedule: Q01DX007 (ip), vehicle: methylcellulose (MC)
  T/C: 33 % of control

## NNC(=O)c1ccncc1
dose: 7.5 mg/kg/injection, schedule: Q#A X014 (ip), vehicle: carboxymethylcellulose (CMC)
  T/C: 112 % of control
dose: 15.0 mg/kg/injection, schedule: Q#A X014 (ip), vehicle: carboxymethylcellulose (CMC)
  T/C: 105 % of control
dose: 30.0 mg/kg/injection, schedule: Q#A X014 (ip), vehicle: carboxymethylcellulose (CMC)
  T/C: 101 % of control
dose: 60.0 mg/kg/injection, schedule: Q#A X014 (ip), vehicle: carboxymethylcellulose (CMC)
  T/C: 74 % of control

## CCOC(=O)C(N)CC(C)C (centres undefined)
[3]
  T/C: 101 % of control
dose: 500.0 mg/kg/injection, schedule: Q01DX007 (ip), vehicle: carboxymethylcellulose (CMC)
  T/C: 120 % of control

## O=C1C=CC(=O)N1c1ccc2c(c1)C(Br)c1ccccc1-2 (centres undefined)
dose: 3.0 mg/kg/injection, schedule: Q#A X014 (ip), vehicle: carboxymethylcellulose (CMC)
  T/C: 97 % of control
dose: 5.5 mg/kg/injection, schedule: Q#A X014 (ip), vehicle: carboxymethylcellulose (CMC)
  T/C: 73 % of control
dose: 11.0 mg/kg/injection, schedule: Q#A X014 (ip), vehicle: carboxymethylcellulose (CMC)
  T/C: 109 % of control
dose: 11.0 mg/kg/injection, schedule: Q#A X014 (ip), vehicle: methylcellulose (MC)
  T/C: 45 % of control and 52 % of control
dose: 16.5 mg/kg/injection, schedule: Q#A X014 (ip), vehicle: carboxymethylcellulose (CMC)
  T/C: 102 % of control
dose: 16.5 mg/kg/injection, schedule: Q#A X014 (ip), vehicle: methylcellulose (MC)
  T/C: 32 % of control and 50 % of control
dose: 25.0 mg/kg/injection, schedule: Q#A X014 (ip), vehicle: carboxymethylcellulose (CMC)
  T/C: 99 % of control
dose: 25.0 mg/kg/injection, schedule: Q#A X014 (ip), vehicle: methylcellulose (MC)
  T/C: 40 % of control
dose: 37.5 mg/kg/injection, schedule: Q#A X014 (ip), vehicle: carboxymethylcellulose (CMC)
  T/C: 89 % of control

## O=C(Nc1ccc(C2=NCCN2)cc1)c1cccc(C(=O)Nc2ccc(C3=NCCN3)cc2)c1
dose: 1.2 mg/kg/injection, schedule: Q01DX007 (ip), vehicle: carboxymethylcellulose (CMC)
  T/C: 167 % of control
dose: 4.7 mg/kg/injection, schedule: Q01DX007 (ip), vehicle: carboxymethylcellulose (CMC)
  T/C: 109 % of control
dose: 9.4 mg/kg/injection, schedule: Q01DX007 (ip), vehicle: carboxymethylcellulose (CMC)
  T/C: 117 % of control
[1]
  T/C: 163 % of control
dose: 120.0 mg/kg/injection, schedule: Q01DX007 (ip), vehicle: carboxymethylcellulose (CMC)
  T/C: 98 % of control
dose: 240.0 mg/kg/injection, schedule: Q01DX007 (ip), vehicle: carboxymethylcellulose (CMC)
  T/C: 79 % of control

## CCN(CC)CCOC(=O)c1ccc(N)cc1
dose: 75.0 mg/kg/injection, schedule: Q#A X014 (ip), vehicle: saline
  T/C: 92 % of control
